# Assay results reported in patent EP2329817A1, “Retinoic acid receptor antagonists, miR-10a inhibitors and inhibitors of HOXB1 or HOXB3 repressors for treating pancreatic cancer” (Ernst-Moritz-Arndt-Universität Greifswald, priority 2009, dated 2011).
# Where “and” joins values, the source holds several entries; their conditions need not be identical. Equal values may be shown once.
# Tests used:
# PaTu-S cells = experiment: Zebrafish embryo xenotransplantation: invasion and metastatic behaviour of pretreated PaTu-S cells; assay type: in vivo, human
# Description: Zebrafish (Danio rerio) (Tuebingen line, AIB strain (Albinos) and Tg (fli1:eGFP) were handled in compliance with local animal care regulations and standard protocols of the Netherlands and Germany. Fish were kept at 28°C in aquaria with day/night light cycles (10 h dark versus 14 h light periods). The developing embryos were kept in an incubator at constant temperatures.
# The selective RARα antagonist Ro-41-5253 was purchased from Biomol International, dissolved in DMSO and cells were treated overnight prior to injections at a final concentration of 200 nM (50% inhibition at 60nM)^14,15. Retinoic acid (ATRA, Sigma) was added to cells ON at a final concentration of 1 µM.
# Cells were stained with CM-Dil (red fluorescence) at a 1:1000 dilution according to the manufacturers protocol (Vybrant, Invitrogen). Cells were suspended in 67% DPBS for injection into embryos. 2dpf zebrafish embryos were dechorionated and tranquilized with tricaine (Sigma). An injection needle (15µm diameter) with a manual injector (Eppendorf; Celltram Vario) was used to inject ∼200 cells into the yolk sac of 2dpf zebrafish embryos. On average 80 embryos were injected for each treatment and embryos with detectable cell scatter 2 h after the transfer (and therefore presumably due to the transfer procedure) were excluded from further analysis. Presence of cells was checked after 2 h incubation at 31°C and embryos were subsequently kept at 35°C. We defined metastasis based on the number of fluorescent cells that were detected outside the yolk sac 2 days after the transfer. Presence of 5 or more cells was considered "metastasised" and percentages of metastasised fish in each experiment were counted. The occurence of micro-metastasis is indicated by cell clusters of ≥4 cells presumably originating from cell division. PaTu-S cells and ASPC1 cells were transfected ON with indicated concentrations of miR-10a siRNA in the presence of ICA-Fectin TM442 (Eurogentec, Belgium). Whole cell lysates were prepared 36h post-transfection and 40 µg of total lysates were separated on 7.5% PAA-gels and blotted with anti E-cadherin, α-catenin, β-catenin (all mAbs, Transduction Labs) and actin antibodies (mAb Sigma-Aldrich, Germany).
# Morpholino antisense oligonucleotides were obtained from Gene Tools, LLC (OR, USA) and used as previously described^19. The miR-10a antisense Morpholino sequence is: […]. Standard control Morpholino was […]. Both miR-10a and control Morpholinos were fluorescein labeled. The siRNAs for human HOXB1, human HOXB3 and human RARα were purchased from Santa Cruz Biotechnology (HOXB1: sc-38686, HOXB3: sc-38690 and RARα: sc-29465). EndoPorter (Gene Tools, LLC) was used to deliver Morpholinos and siRNAs into cells and efficiencies for Morpholinos were checked by fluorescence microscopy to be >98%. For the miR-10a siRNA, the sense strand corresponds to […]. The sequence of control siRNA (miR-196a) was […] with the corresponding antisense sequence). 30 µl of each siRNA oligo (50 µM) were annealed by gradually cooling from 98°C to 20°C in a volume of 75 µl annealing buffer (50 mM Tris, pH 7.8, 100 mM NaCl RNAse free). The effect of miR-10a Morpholinos on miR-10a function was tested with a sensor construct: pCS2+ EGFP 4x miR-10 AS containing 4 copies of a miR-10a antisense sequence.
# RARα = molecular target: T1, RARα (Homo sapiens, UniProt P10276); settings: literature references 14, 15; read-out: 50% inhibition; cited from earlier work
# T1 sequence (P10276 1-462): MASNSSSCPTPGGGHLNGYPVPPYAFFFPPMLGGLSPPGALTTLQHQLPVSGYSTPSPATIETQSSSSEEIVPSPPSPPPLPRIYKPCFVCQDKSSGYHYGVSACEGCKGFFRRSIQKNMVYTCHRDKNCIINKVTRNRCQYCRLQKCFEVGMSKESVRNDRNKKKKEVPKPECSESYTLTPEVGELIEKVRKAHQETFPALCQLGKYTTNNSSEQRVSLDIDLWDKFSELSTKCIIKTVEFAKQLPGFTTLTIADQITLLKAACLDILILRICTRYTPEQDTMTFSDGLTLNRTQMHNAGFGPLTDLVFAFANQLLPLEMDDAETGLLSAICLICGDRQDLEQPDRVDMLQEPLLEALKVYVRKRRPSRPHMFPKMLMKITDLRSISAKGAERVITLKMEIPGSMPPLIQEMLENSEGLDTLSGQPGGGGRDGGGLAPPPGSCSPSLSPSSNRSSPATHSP
# [1] = Experiment 1, Day 1, number of embryos
# [2] = Experiment 1, Day 2, number of embryos
# [3] = Experiment 1, Day 3, number of embryos
# [4] = Experiment 2, Day 1, number of embryos
# [5] = Experiment 2, Day 2, number of embryos
# [6] = Experiment 2, Day 3, number of embryos
smiles,measurement,setting,value
"CC1=C(/C=C/C(C)=C/C=C/C(C)=C/C(=O)O)C(C)(C)CCC1 [RA, all trans retinoic acid]",total >5,"PaTu-S cells; Experiment 1, number of embryos (equals the Day 1 total)",14
same,Migration 5 to 20,PaTu-S cells; [1],11
same,Migration <5,PaTu-S cells; [1],1
same,Migration >20,PaTu-S cells; [1],3
same,total >5,PaTu-S cells; [1],14
same,Migration 5 to 20,PaTu-S cells; [2],10
same,Migration <5,PaTu-S cells; [2],0
same,Migration >20,PaTu-S cells; [2],4
same,total >5,PaTu-S cells; [2],14
same,Migration 5 to 20,PaTu-S cells; [3],19
same,Migration <5,PaTu-S cells; [3],0
same,Migration >20,PaTu-S cells; [3],3
same,total >5,PaTu-S cells; [3],12
same,total >5,"PaTu-S cells; Experiment 1, summary line, percentage in brackets (of embryos alive)",24.1%
same,total >5,"PaTu-S cells; Experiment 2, number of embryos (equals the Day 1 total)",20
same,Migration 5 to 20,PaTu-S cells; [4],15
same,Migration <5,PaTu-S cells; [4],1
same,Migration >20,PaTu-S cells; [4],5
same,total >5,PaTu-S cells; [4],20
same,Migration 5 to 20,PaTu-S cells; [5],13
same,Migration <5,PaTu-S cells; [5],1
same,Migration >20,PaTu-S cells; [5],4
same,total >5,PaTu-S cells; [5],17
same,Migration 5 to 20,PaTu-S cells; [6],12
same,Migration <5,PaTu-S cells; [6],1
same,Migration >20,PaTu-S cells; [6],5
same,total >5,PaTu-S cells; [6],17
same,total >5,"PaTu-S cells; Experiment 2, summary line, percentage in brackets (of embryos alive)",31.2%
same,Average % (observed metastasised embryos),"PaTu-S cells; Table 1, pretreated PaTu-S cells transplanted into zebrafish embryos, average of 2-4 experiments",27.7%
same,"%migration, Average","PaTu-S cells; average of experiments, PaTu-S",27.7%
same,%migration,"PaTu-S cells; single experiments, PaTu-S",24.1% and 31.2%
"CCCCCCCOc1cc2c(cc1/C(C)=C/c1ccc(C(=O)O)cc1)C(C)(C)CCS2(=O)=O [Ro-41-5253, Benzoic acid, 4-(2-(7-(heptyloxy)-3,4-dihydro-4,4-dimethyl-2H-1-benzothiopyran-6-yl)-1-propenyl)-, S,S-dioxide, (E)]",IC50,RARα,60 nM
